From US10889812B2, “Short non-coding protein regulatory RNAs (sprRNAs) and methods of use” (University of Maryland, Baltimore, priority 2014, dated 2021)

What was measured:
H157 tumor xenograft = H157 tumor xenograft model, intra-tumor injection of Ant-138 with CDDP; format: in vivo, mice
Excerpt: To further validate the interaction between piR-L-138 and MDM2 at the individual cell level, we performed fluorescence in situ hybridization (FISH) assay using a digoxin (DIG)-labelled RNA probe complimentary to piR-L-138 and an anti-MDM2 antibody. We first tested the probes in HBE4 cells which express high levels of piR-L-138 to ensure the sensitivity and specificity of the piR-L-138 probe and MDM2 antibody (FIG. 16c). […] This is consistent with the observed up-regulation of piR-L-138 in SCC cells upon CDDP treatment and the interaction between piR-L-138 and MDM2. Next, we used H157 tumor xenograft model to determine if targeting piR-L-138 can enhance CDDP-mediated tumor cell apoptosis in SCC in vivo. In this proof of principle experiment, we used intra-tumor injection of Ant-138 (SEQ ID NO:556) which was formulated with MaxSuppr in vivo RNALancerll as described previously (Wiggins J F, et al. Development of a Lung Cancer Therapeutic Based on the Tumor Suppressor MicroRNA-34. Cancer Res. 70, 5923-30(2010)) due to the requirement of very large quantity of formulated reagents needed for systemic delivery. […] Since we were using local injection with sub-optimal dose, such modest anti-tumor activity was expected. We were focusing on determining if Ant-138 increased apoptosis at the sites of injection by analyzing tumor tissue sections for cleaved caspase 3 as an indicator of apoptosis and Ant-138.

SCC cells = assay: Annexin V staining assay, CDDP-induced apoptosis; format: cell-based, human; conditions: pre-treated SCC cells, vs Scr pre-treated
Excerpt: (§1) To determine if the increased piR-L-138 plays a functional role in CDDP treated SCC cells, we used DNA antisense oligos of piR-L-138 (Ant-138) to block piR-L-138 in H157 and SKMES-1 cells. Six hours after Ant-138 treatment, we treated the cells with CDDP (IC25 dose).

MDM2 = assay: Western blot of MDM2 cleavage and phosphorylation in SCC cells; format: cell-based, human; conditions: SCC cells pre-treated, upon CDDP treatment
Excerpt: (§2) Primary antibodies used were: anti-Moesin (1:1,000, Clone Q480, Catalog No. 3150, Cell Signaling), anti-p-ERM (Clone 41A3, Catalog No. 3149, Cell Signaling), anti-Moesin (Clone 38/Moesin, Catalog No. 610401, BD Transduction Laboratories), anti-p-Moesin (Thr558, Catalog No. 12895, Sanra Cruz), anti-β-actin (1:5,000, Catalog No. A228, Sigma-Aldrich), anti-EBP50 (1:100, Clone 6/EBP50, Catalog No. 61160, BD Transduction Laboratories), anti-F-actin (1:100, Clone NH3, Catalog No. MA1-80729, Thermor Fisher), anti-p-Wee 1 (Se53, 1:1000, Catalog No. sc-130223, Sanra Cruz), anti-Wee 1 (C-20, 1:1000, Catalog No. sc-325, Sanra Cruz), anti-p-Cdc2 (Tyr15, 1:1000, Catalog No. 9111, Cell Signaling), anti-p-Cdk (Thr14/Tyr15-R, 1:1000, Catalog No. sc-28435-R, Sanra Cruz), anti-Cdc2 p34 (H-297, 1:1000, Catalog No. sc-747, Sanra Cruz), anti-p-Cdc25C (Ser198, 1:1000, Catalog No. 9529, Cell Signaling), anti-CDK2 (78B2, 1:1000, Catalog No. 2546, Cell Signaling), anti-p-Histone H2AX (Ser139, 20E3, :1000, Catalog No. 9718, Cell Signaling), and anti-GFP (N-terminal, 1:4000, Catalog No. G1544, Sigma). Secondary antibodies used were: Goat anti-Mouse (1:2,500, Catalog No. 31160, Pierce), and Goat anti-Rabbit (1:2,500, Catalog No. 31460, Pierce). Cells were lysed in RIPA buffer (Sigma) on ice after washed in PBS twice, centrifuge at […] for 10 min at 4° C. Protein in supernatant was qualified using BCA™ protein assay kit (Thermo Scitific) and denatured in SDS loading buffer in boiling water, run 10% SDS-PAGE gel and transferred to nitrocellulose membrane (Thermo Scitific). […]
Next, we wanted to explore potential mechanism of piR-L-138-mediated apoptosis inhibition in CDDP treated lung SCC cells. We first analyzed cleaved PARP, a protein marker indicative of apoptosis, and found it was increased in the SCC cells pre-treated with Ant-138 compared with Scr pre-treated cells (FIG. 15d). As both of the SCC cell lines harbor p53 mutations, we analyzed mouse double minute 2 homolog (MDM2) which has been implicated in apoptosis including p53-independent pathway (Bohlman S, Manfredi J J. p53-independent effects of Mdm2. Subcell Biochem. 85,235-46 (2014); Bouska A, Eischen C M. Mdm2 affects genome stability independent of p53. Cancer Res. 69, 1697-701 (2009); Zhang, Z., Li, M., Wang, H., Agrawal, S., and Zhang, R. Antisense therapy targeting MDM2 oncogene in prostate cancer: Effects on proliferation, apoptosis, multiple gene expression, and chemotherapy. Proc. Natl. Acad. Sci. 100, 11636-11641 (2003); Zhang Z, Wang H, Li M, Agrawal S, Chen X, Zhang R. MDM2 Is a Negative Regulator of p21WAF1/CIP1, Independent of p53. […]

H157 and SKMES-1 cells [1] = assay: Flow cytometry, sub-G1 phase after CDDP; format: cell-based, human; conditions: Ant-138 then CDDP (IC25 dose) six hours later, vs Scr
Protocol: Cell cycle distribution was analyzed by Flow Cytometry (Becton-Dickinson). Cells were synchronized in growth factor-free Keratinocyte-SFM with 2 mM Thymidine (Catalog No. T1895, Sigma-Aldrich) for 24 hrs. Transfection is performed using Lipofectamine™ RNAiMAX (Invitrogen) according to its manual, and the final concentration of annealed oligo RNAs is 400 nM. Four hour after transfection, culture medium was replaced by complete Keratinocyte-SFM supplemented with L-Glutamine, prequalified human recombinant EGF 1-53 and BPE. Cells were harvested at different time points, washed in phosphate-buffer saline (PBS), fixed with ice-cold 70% ethanol, and strained in PI/RNase solution (BD Pharmigen). The samples were analyzed on a FACScan flow cytometer in combination with BD lysis software (Becton-Dickinson).
as §1

cleaved PARP = assay: Western blot of cleaved PARP in CDDP treated SCC cells; format: cell-based, human; conditions: pre-treated SCC cells plus CDDP, vs Scr
Excerpt: as §2, with “C.” for “C. Protein in supernatant was qualified using BCA™ protein assay kit (Thermo Scitific) and denatured in SDS loading buffer in boiling water, run 10% SDS-PAGE gel and transferred to nitrocellulose membrane (Thermo Scitific).”

H157 and SKMES-1 cells [2] = assay: MTT assay, cell killing by CDDP after Ant-138; format: cell-based, human; conditions: Ant-138 then CDDP (IC25 dose) six hours later, vs Scr pre-treated
Protocol: Cell viability and cell growth curve assay were determined by MTT assay and trypan blue exclusion assay, respectively as described previously (Kirino, Y. & Mourelatos, Z. Mouse Piwi-interacting RNAs are 2′-O-methylated at their 3′ termini Nat Struct Mol Biol. 14, 347-348 (2007)). BrieflySpecifically, MTT (5 mg/ml) was added into cells and incubated at culture condition for 3 hours, removed the medium carefully and dissolved formazan in DMSO, assay was used to assess the surviving cells and OD values were measured using Microplate Reader Manager (Bio Rad) at wavelengths of 570/690 nm. For trypan blue exclusion assay, cells were washed in PBS for three times, and dyed in 0.4% tyrpan blue solution. Unstained viable cells were counted in hemocytometer chamber under microscope. Each experiment was performed three times independently.
as §1

LAMC2 = LAMC2 expression by real time RT-PCR in HBE4 cells; format: cell-based, human
Excerpt: FIG. 11. Expression of piR-L-163 in NSCLC and HBE cell lines measured by real time RT-PCR. (a) piR-L-163 expression levels in individual cell lines. (b) piR-L-163 express ion levels in HBE, ADC and SCC as groups. All the values are averages of four independent replicates, error bars represent mean s.d., and * indicates p<0.01 by Student's t-test. (c) LAMC2 express ion levels in HBE4 cells measured by real time RT-PCR in the conditions as labeled. Values are averages of three independent replicates, error bars represent mean s.d., and ** indicates p<0.05 by Student's t-test.
We then wanted to determine whether piR-L-163 (SEQ ID NO:282) plays a functional role in human bronchial epithelial cells. We treated HBE4 cells as well as primary normal human bronchial epithelial (NHBE) cells with piR-L-163 complementary DNA oligonucleotides (Ant-163) (SEQ ID NO:496) or RNA oligonucleotides (Ant-163R) (SEQ ID NO:497) in the experiment. […] Cell cycle distributions were measured every 2 hrs.

phosphor-proteins = assay: Western blots of phosphorylated proteins (p-Tyrosine, p-Theronin/Serine); format: cell-based, human; conditions: lung SCC cells treated with the DNA oligo
Excerpt: (§3) To test the potential impact of the candidate sprRNAs identified by phosphor-protein binding in the phosphorylation status of the proteins, we selected a panel of 5 sprRNAs with sizes ranging from 25-50 nt but sharing a common 25 nt sequence and used DNA oligo complementary to the common sequence (5′-[…]-3′) (SEQ ID NO:489) to block these sprRNAs.

lung SCC cell lines = assay: MTT cell viability after DNA oligo blocking 5 sprRNAs; format: cell-based, human; conditions: twenty-four hours after treatment, 4 lung SCC cell lines
Excerpt: as §3

Ant-138: DNA sequence that is antisense to piR-L-138, SEQ ID NO:556 (antisense AGGTCTCAGAGTAATTCTAGAGCTAAAGT; listed as DNA, chemistry not given here)
caspase 3 positive tumor cells by Ant-138 level (immunofluorescence) (H157 tumor xenograft; tumors treated with CDDP and Ant-138): significantly concentrated caspase 3 positive tumor cells in areas with high levels of Ant-138
tumor size (H157 tumor xenograft; with CDDP, intra-tumor injection, vs untreated and CDDP plus Scr): smaller but the difference was only border line statistically
expression of cleaved caspase 3 in tumors (H157 tumor xenograft; with CDDP, vs CDDP and Scr control): higher expression of cleaved caspase 3
sensitivity to CDDP-induced apoptosis (annexin V) (SCC cells): more sensitive to CDDP-induced apoptosis
MDM2 cleavage (MDM2): substantially reduced MDM2 cleavage
serine-166 phosphorylation in the cleaved MDM2 (MDM2): increase of serine-166 phosphorylation in the cleaved MDM2
proportion of the sub-G1 phase (H157 and SKMES-1 cells [1]): substantially increased proportion of the sub-G1 phase
cleaved PARP (cleaved PARP): increased
cell killing (MTT) (H157 and SKMES-1 cells [2]): significantly increased cell killing

Ant-163R: piR-L-163 complementary RNA oligonucleotides, SEQ ID NO:497 (antisense GGUCAGAGAAUCAAAGUAACAUCAUGAUAU; listed as RNA, chemistry not given here)
expression levels of LAMC2 (LAMC2): reduced expression levels of LAMC2

DNA oligo complementary to the common sequence: DNA sequence antisense to SEQ ID NO:489 (AntiC, SEQ ID NO:558), blocks 5 sprRNAs sharing a common 25 nt sequence (antisense CGAACCCGGGCCGCGGCGGTGAGA; DNA, backbone and methylation of C not given here)
levels of phosphorylated proteins (phosphor-proteins): changes of levels in certain phosphor-proteins
cell viability (MTT) (lung SCC cell lines): significant growth inhibition
